From article PMC2580772, “The dual transcriptional regulator CysR in Corynebacterium glutamicum ATCC 13032 controls a subset of genes of the McbR regulon in response to the availability of sulphide acceptor molecules” (BMC Genomics, 2008)

Target: T1, CysR (Corynebacterium glutamicum, UniProt Q8NU28)
T1 construct: gene Cgl0121; expressed in E. coli ER2566 from pTYB1 (pCR050)
T1 sequence (Q8NU28 1-381): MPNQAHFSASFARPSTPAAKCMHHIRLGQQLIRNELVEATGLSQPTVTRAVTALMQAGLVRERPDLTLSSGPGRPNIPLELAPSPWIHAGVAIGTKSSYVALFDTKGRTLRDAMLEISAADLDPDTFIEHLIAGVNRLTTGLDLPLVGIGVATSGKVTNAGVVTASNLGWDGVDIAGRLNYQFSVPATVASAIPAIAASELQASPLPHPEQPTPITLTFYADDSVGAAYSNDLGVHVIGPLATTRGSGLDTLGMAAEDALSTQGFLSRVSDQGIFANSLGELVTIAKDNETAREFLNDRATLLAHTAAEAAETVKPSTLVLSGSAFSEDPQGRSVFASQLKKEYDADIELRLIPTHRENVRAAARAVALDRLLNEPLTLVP
Assay: EMSA, effector-dependent DNA binding
Settings: 10 mM effector; Cy3-labelled 523 bp cysI-fpr2 DNA; 1,000 times molar excess of protein; pH 7.5; room temperature; co-activator

Structure (SMILES) | EMSA, effector-dependent DNA binding
CC(=O)OCC[C@H](N)C(=O)O [OAH, O-acetyl-L-homoserine] | CysR can only bind if either OAS or OAH is added to the assay
CC(=O)OC[C@H](N)C(=O)O [OAS, O-acetyl-L-serine] | CysR can only bind if either OAS or OAH is added to the assay
